According to patent publication US9309220B2, “Processes for the preparation of (S)-3-(4- (4-(morpholinomethyl)benzyl)oxy)-1-oxoisoindolin-2-yl)piperidine-2,6-dione and pharmaceutically acceptable forms thereof” (Celgene Corporation, priority 2012, dated 2016):
Structures can show the parent of a compound that is named as a salt.

Assay: eutectic enantioexcess (eeeu) / eutectic solubility of (S)-enantiomer form with corresponding racemic compound
Type: physicochemical
Experimental: The majority of racemic mixtures preferentially form racemic compounds (reference Jacques book). The saturation solubility of a racemic compound and the pure enantiomer in the presence of a solvent is known as the eutectic point. The ratio of the solubility, i.e., the “eutectic enantioexcess” (eeeu), is a useful parameter to assess the chiral upgrade capability for a given system. The eeeu is calculated from the relative solubility of the R- and S-enantiomers: eeeu=([major]−[minor])/([major]+[minor]), where [major] is the solubility of the major enantiomer at the eutectic, and [minor] is the solubility of the minor enantiomer at the eutectic. […] The eeeu can be dependent on temperature in all cases. […]
Physical characterization confirmed that the HCl salt of the racemic compound was a hydrate, which was determined to be a thermodynamically stable crystal form. […] The quantities of solvent and equipment capacity needed to provide chiral upgrade would be impractical and uneconomical. For instance, to upgrade from 90% ee to 98% ee, it was calculated to require 200 L solvent per kg starting material.
From this eeeu, it was calculated that achieving an upgrade from 90% ee to 98% ee would require 46 L solvent per kg starting material which, while an improvement, is still undesirable. […]

Compound | eutectic enantioexcess (eeeu) (hydrate with corresponding hydrate racemic compound, 22° C.) [%] | absolute solubility
O.O=C1CC[C@H](N2Cc3c(OCc4ccc(CN5CCOCC5)cc4)cccc3C2=O)C(=O)N1 [(S)-3-(4-((4-(morpholinomethyl)benzyl)oxy)-1-oxoisoindolin-2-yl)piperidine-2,6-dione hydrate] | 89.2 | 
O=C1CC[C@H](N2Cc3c(OCc4ccc(CN5CCOCC5)cc4)cccc3C2=O)C(=O)N1 [(S)-3-(4-((4-(morpholinomethyl)benzyl)oxy)-1-oxoisoindolin-2-yl)piperidine-2,6-dione hydrochloride] |  | quite low
